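Five compound concentrations were applied to cells in 96-well plates for 48 hours; endpoints were derived by simple linear interpolation of the resulting dose-response curve. Abbreviation: GI50, concentration required for 50% inhibition of growth.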 The source made the active and inactive calls. Rule as the data show it: active = GI50 up to about 1.1 µM and inactive = higher.
Assays:
Test in all cases: DTP human tumour cell line panel, 48 h
Hs-578T = system: Hs-578T
DLD-1 = system: DLD-1
DMS-114 = system: DMS-114
DMS-273 = system: DMS-273
HOP-18 = system: HOP-18
KM-20L2 = system: KM-20L2
M19-MEL = system: M19-MEL
RXF 631 = system: RXF 631
XF498 = system: XF498

Row | SMILES | GI50 (Hs-578T) | GI50 (DLD-1) | GI50 (DMS-114) | GI50 (DMS-273) | GI50 (KM-20L2) | other results
1 | CCOC(=O)c1[nH]c(Br)c(-c2ccc(OC)c(OC)c2)c1Br | 0.0369 µM (active) | – | – | – | – | –
2 | c1ccc(CN2CCCCC(Sc3ccccc3)CC2)cc1 (stereo unspecified) | – | 20.8 µM (inactive) | 22.4 µM (inactive) | 12.6 µM (inactive) | 26.4 µM (inactive) | GI50 (HOP-18): 42.7 µM (inactive); GI50 (M19-MEL): 3.1 µM (inactive)
3 | O=C1C=CC2(C=C1)O[C@H](COCc1ccccc1)[C@@H](COCc1ccccc1)O2 | 1.75 µM (inactive) | – | – | – | – | –
4 | CC(C)(C)OC(=O)NC(CCCCNC(=O)OCc1ccccc1)C(=O)NC(CCCCNC(=O)OCc1ccccc1)C(=O)ON1C(=O)CCC1=O (stereo unspecified) | > 100 µM (inactive) | – | – | – | – | –
5 | N#CCOc1ccc(/C=C/C(=O)c2ccc(Cl)cc2)cc1 | 18.2 µM (inactive) | – | – | – | – | –
6 | NC(=O)N/N=C(/c1nc2ccc([N+](=O)[O-])cc2nc1O)C(O)c1ccco1 (stereo unspecified) | – | > 100 µM (inactive) | 28.8 µM (inactive) | 20.5 µM (inactive) | 10.4 µM (inactive) | GI50 (M19-MEL): 79.8 µM (inactive); GI50 (RXF 631): 48.2 µM (inactive); GI50 (XF498): > 100 µM (inactive)
7 | Cc1c(C(=N)N)oc2ccccc12 | – | > 100 µM (inactive) | > 100 µM (inactive) | – | > 100 µM (inactive) | GI50 (HOP-18): > 100 µM (inactive); GI50 (M19-MEL): > 100 µM (inactive); GI50 (XF498): 21.4 µM (inactive)
8 | OCCNc1ncnc2c1ncn2C1OC(CO)C(O)C1O (stereo unspecified) | 48 µM (inactive) | – | – | – | – | –
9 | Cc1nnc2n1-c1ccccc1C(=S)N1CSCC21 (stereo unspecified) | > 100 µM (inactive) | – | – | – | – | –
10 | OCCC/N=C1N=C(Cl)/C(=C\c2ccccc2)N\1 | > 100 µM (inactive) | – | – | – | – | –
11 | CC(=O)NCCC1CN(C(=O)/C=C/I)c2ccccc21 (stereo unspecified) | 9.66 µM (inactive) | – | – | – | – | –
12 | COc1ccc2nc3c([N+](=O)[O-])ccc4c3c(c2c1)N=CN4CCN(C)C | 6.73 µM (inactive) | – | – | – | – | –
13 | CC1=C(CO)C(=O)O[C@@H]([C@@H](C)[C@H]2CC[C@H]3[C@@H]4C[C@@H](O)[C@@]5(O)CC=CC(=O)[C@]5(C)[C@H]4CC[C@]23C)C1 [JABOROSALACTONE D] | 35.7 µM (inactive) | – | – | – | – | –
14 | CC12CCC([C@H](N3CCOCC3)/C1=N\OCCN1CCCC1)C2(C)C (stereo partly specified) | – | > 100 µM (inactive) | 71.9 µM (inactive) | > 100 µM (inactive) | > 100 µM (inactive) | GI50 (HOP-18): > 100 µM (inactive); GI50 (M19-MEL): > 100 µM (inactive); GI50 (RXF 631): > 100 µM (inactive)
15 | CC(=O)O[C@H]1CCC2[C@@H]3CCC4c5nonc5CC[C@]4(C)C3CC[C@@]21C (stereo partly specified) | – | > 10 µM (inactive) | > 10 µM (inactive) | > 10 µM (inactive) | > 10 µM (inactive) | GI50 (HOP-18): > 10 µM (inactive); GI50 (M19-MEL): > 10 µM (inactive)
16 | Nc1cnc(Nc2cccc3ccccc23)o1 | > 10 µM (inactive) | – | – | – | – | –
17 | Cn1cnc([N+](=O)[O-])c1Sc1nc2cc(Cl)c(F)cc2[nH]1 | – | 7.67 µM (inactive) | 6.35 µM (inactive) | 3.54 µM (inactive) | 11.4 µM (inactive) | GI50 (HOP-18): 7.8 µM (inactive); GI50 (M19-MEL): 11.7 µM (inactive)
18 | O=c1[nH][nH]c(=O)[nH]1 | – | > 100 µM (inactive) | – | > 100 µM (inactive) | > 100 µM (inactive) | GI50 (M19-MEL): > 100 µM (inactive); GI50 (XF498): > 100 µM (inactive)
19 | O=C1NC(=S)NC(=O)C1=Cc1cccc2cc3ccccc3cc12 | 2.97 µM (inactive) | – | – | – | – | –
20 | CCN1CCC(O)(c2ccc(Cl)c(Cl)c2)C(C(=O)c2ccc(Cl)c(Cl)c2)C1 (stereo unspecified) | – | 17.8 µM (inactive) | 17.1 µM (inactive) | 18.1 µM (inactive) | 17.9 µM (inactive) | GI50 (XF498): 19.2 µM (inactive)
21 | CC(C)[C@@H]1CC[C@@H](C)C[C@H]1OC(=O)c1c2n(c3ccccc13)C[C@H]1OC(C)(C)O[C@@H]21 | 16.7 µM (inactive) | – | – | – | – | –
22 | CCOC(=O)C(NC(=O)Nc1ccc(Cl)c(Cl)c1)C(F)(F)F (stereo unspecified) | 40.5 µM (inactive) | – | – | – | – | –
23 | N=C1NC2(O)C(=O)c3ccccc3C2(O)N1 (stereo unspecified) | – | > 100 µM (inactive) | > 100 µM (inactive) | > 100 µM (inactive) | > 100 µM (inactive) | GI50 (HOP-18): > 100 µM (inactive); GI50 (RXF 631): > 100 µM (inactive)
24 | CO[C@H]1[C@@H](O)[C@@H](C)O[C@@H](O[C@H]2CC[C@@]3(C)[C@H](CC[C@@H]4[C@@H]3CC[C@]3(C)[C@@H](C5=CC(=O)OC5)CC[C@]43O)C2)[C@@H]1O [ODOROSIDE H] | 0.00454 µM (active) | – | – | – | – | –
25 | O/N=C(/CC(O)(C(F)(F)F)C(F)(F)F)c1ccccc1 | > 10 µM (inactive) | – | – | – | – | –
26 | CN1CC2=C(OC(N)=C(C#N)C2c2cccs2)/C(=C/c2cccs2)C1 (stereo unspecified) | > 100 µM (inactive) | – | – | – | – | –
27 | O=C(CC(NC(=O)OCc1ccccc1)C(=O)NC1Cc2ccccc2C1=O)OCc1ccccc1 (stereo unspecified) | 84.3 µM (inactive) | – | – | – | – | –
28 | O=C(O)C/N=C(\C(=N\CC(=O)O)c1ccccc1)c1ccccc1 | > 100 µM (inactive) | – | – | – | – | –
29 | Cn1c(=O)nc2n(CCO)ccnc-2c1=O | 91.4 µM (inactive) | – | – | – | – | –
30 | COC1C(OC(=O)c2ccc(C)[nH]2)C(O)C(Oc2ccc3c(O)c(NC(=O)c4c[nH]c(C(=O)Nc5c(O)c6ccc(OC7OC(C)(C)C(OC)C(OC(=O)c8ccc(C)[nH]8)C7O)c(C)c6oc5=O)c4C)c(=O)oc3c2C)OC1(C)C (stereo unspecified) | – | 1.86 µM (inactive) | 2.02 µM (inactive) | 2.86 µM (inactive) | 2.4 µM (inactive) | GI50 (HOP-18): 0.596 µM (active); GI50 (M19-MEL): 1.64 µM (inactive); GI50 (XF498): 2.18 µM (inactive)

— ChEMBL document CHEMBL1201862, “PubChem BioAssay data set” (2004)
